Results published in patent US8211929B2, “Pyrimidine derivatives as kinase modulators and method of use” (Exelixis, Inc., priority 2004, dated 2012).
Like-named read-outs stand apart in the source and are kept apart here.

Tests used:
[1] = target: T1, IGF 3P (Homo sapiens, UniProt P08069); experiment: IGF1R kinase assay (LCCA), IGF 3P; type: biochemical
T1 construct: human IGF1R kinase domain residues M954-C1367; made in house; host or cells: baculovirus expression (insect cells)
Procedure: (§1) Kinase activity and compound inhibition are investigated using one or more of the three assay formats described below. The ATP concentrations for each assay are selected to be close to the Michaelis-Menten constant (KM) for each individual kinase. Dose-response experiments are performed at 10 different inhibitor concentrations in a 384-well plate format. […] Y=Min+(Max−Min)/(1+(X/IC50)^H) Equation (2)
(§2) IGF1R kinase biochemical activity was assessed using a Luciferase-Coupled Chemiluminescent Kinase assay (LCCA) format. Kinase activity was measured as the percent ATP remaining following the kinase reaction. Remaining ATP was detected by luciferase-luciferin-coupled chemiluminescence. Specifically, the reaction was initiated by mixing test compounds, 3 μM ATP, 4 μM poly EY peptide and 4 nM IGF1R (baculovirus expressed human IGF1R kinase domain residues M954-C1367) in a 20 uL assay buffer (20 mM Tris-HCL pH7.5, 10 mM MgCl2, 0.02% Triton X-100, 1 mM DTT, 2 mM MnCl2). The mixture is incubated at ambient temperature for 2 hours after which 20 uL luciferase-luciferin mix is added and the chemiluminescent signal read using a Wallac Victor^2 reader.

[2] = target: T2, (Homo sapiens, UniProt P08069); experiment: IGF1R kinase assay (LCCA), IGF 0P; type: biochemical
T2 construct: human IGF1R kinase domain residues M954-C1367; made in house; host or cells: baculovirus expression (insect cells)
Procedure: as §1, §2

T2 sequence (P08069 954-1367): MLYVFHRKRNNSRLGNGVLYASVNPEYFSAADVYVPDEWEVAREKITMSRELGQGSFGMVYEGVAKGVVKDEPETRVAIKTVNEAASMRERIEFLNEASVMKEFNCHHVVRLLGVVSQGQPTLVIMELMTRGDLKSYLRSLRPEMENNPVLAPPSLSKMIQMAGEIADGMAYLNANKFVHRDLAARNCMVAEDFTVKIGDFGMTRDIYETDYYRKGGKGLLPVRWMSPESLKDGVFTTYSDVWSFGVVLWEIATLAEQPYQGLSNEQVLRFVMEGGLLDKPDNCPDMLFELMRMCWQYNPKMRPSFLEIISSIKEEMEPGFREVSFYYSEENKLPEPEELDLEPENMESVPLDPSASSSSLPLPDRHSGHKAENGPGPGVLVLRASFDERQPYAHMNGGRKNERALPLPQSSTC
T1 sequence (P08069 954-1367): as above

Row | Structure (SMILES) | IC50 ([1]; IGF1R kinase LCCA assay) | IC50 ([2]; IGF1R kinase LCCA assay) | IC50 [1] | IC50 [2]
1 | CC(C)(C)OC(=O)NCc1ccc(Nc2ncc(Br)c(Nc3cc(C4CC4)[nH]n3)n2)cc1 [Example 92] | 50 to 500 nM | 50 to 500 nM | – | –
2 | CCN(CC)CCCNC(=O)CCc1cccc(Nc2ncc(Br)c(Nc3cc(C4CC4)n[nH]3)n2)c1 [Example 107] | 50 to 500 nM | 500 to 5000 nM | – | –
3 | Cc1cc(Nc2cc(C3CC3)n[nH]2)nc(NCc2nc(C(=O)NCCc3ccccc3F)cs2)n1 [Example 571] | 500 to 5000 nM | 500 to 5000 nM | – | –
4 | Cc1cc(Nc2cc(C3CC3)[nH]n2)nc(NCc2cc(-c3ccc(F)cn3)no2)n1 [Example 639, N^4-(5-cyclopropyl-1H-pyrazol-3-yl)-N^2-{[3-(5-fluoropyridin-2-yl)isoxazol-5-yl]methyl}-6-methylpyrimidine-2,4-diamine] | – | – | 500 to 5000 nM | 500 to 5000 nM
5 | Brc1cnc(NCc2cc(-c3ccccc3)no2)nc1Nc1cc(C2CC2)[nH]n1 [Example 14] | 50 to 500 nM | 50 to 500 nM | – | –
6 | Cc1cc(Nc2n[nH]cc2C#N)nc(NCc2cc(-c3ccccc3)no2)n1 [Example 306] | > 5000 nM | > 5000 nM | – | –
7 | Clc1cccc(-c2ncc(CNc3ncc(Br)c(Nc4cc(C5CC5)[nH]n4)n3)s2)c1 [Example 290] | > 5000 nM | > 5000 nM | – | –
8 | Cc1cc(Nc2cc(C3CC3)n[nH]2)nc(Nc2ccc(CCN)cc2)n1 [Example 550] | 50 to 500 nM | 500 to 5000 nM | – | –
9 | c1cc(Nc2cc(C3CC3)[nH]n2)nc(NCc2cc(C3CCCCC3)no2)n1 [Example 129] | 50 to 500 nM | 500 to 5000 nM | – | –
10 | CCCCNc1cc(C)nc(NCc2cc(-c3ccccc3)no2)n1 [Example 293] | > 5000 nM | > 5000 nM | – | –
11 | CC(C)c1cc(Nc2cc(OCCN3CCCCC3)nc(NCc3cc(-c4ccccc4)no3)n2)[nH]n1 [Example 589, N^4-[3-(1-methylethyl)-1H-pyrazol-5-yl]-N^2-[(3-phenylisoxazol-5-yl)methyl]-6-[(2-piperidin-1-ylethyl)oxy]pyrimidine-2,4-diamine] | – | – | < 50 nM | 50 to 500 nM
12 | CN1CCN(c2ccc(CNc3ncc(Br)c(Nc4cc(C5CC5)n[nH]4)n3)cc2)CC1 [Example 186] | 500 to 5000 nM | 500 to 5000 nM | – | –
13 | Cc1cc(Nc2cc(C3CC3)n[nH]2)nc(Nc2ccc(CC#N)cc2)n1 [Example 125] | 50 to 500 nM | 50 to 500 nM | – | –
14 | c1ccc(-c2cc(CNc3nc(NCCN4CCOCC4)cc(Nc4cc(C5CC5)[nH]n4)n3)on2)cc1 [Example 513] | < 50 nM | 50 to 500 nM | – | –
15 | CN1CCN(C(=O)CCc2cccc(Nc3ncc(Br)c(Nc4cc(C5CC5)n[nH]4)n3)c2)CC1 [Example 100] | 50 to 500 nM | 500 to 5000 nM | – | –
16 | Fc1cnc(Nc2ccccc2Cl)nc1Nc1cc(C2CC2)[nH]n1 [Example 168] | 500 to 5000 nM | 50 to 500 nM | – | –
17 | CC(C)(C)OC(=O)N1CC[C@H](NC(=O)c2cccc(Nc3ncc(Br)c(Nc4cc(C5CC5)n[nH]4)n3)c2)C1 [Example 141] | 50 to 500 nM | 500 to 5000 nM | – | –
18 | Clc1ccccc1Nc1nc(Nc2cc(C3CC3)n[nH]2)c2nc[nH]c2n1 [Example 210] | 500 to 5000 nM | 50 to 500 nM | – | –
19 | Cc1cc(Nc2cc(C3CC3)[nH]n2)nc(NCc2ccco2)n1 [Example 563] | 500 to 5000 nM | 500 to 5000 nM | – | –
20 | Cc1cc(Nc2cc(C3CC3)n[nH]2)nc(Nc2ccc(CCN3CCCCC3)cc2)n1 [Example 554] | 500 to 5000 nM | 500 to 5000 nM | – | –
21 | Brc1cnc(Nc2ccc(Oc3ccccc3)cc2)nc1Nc1cc(C2CC2)[nH]n1 [Example 321] | > 5000 nM | > 5000 nM | – | –
22 | Cc1cc(CNc2nc(C)cc(Nc3cc(C4CC4)n[nH]3)n2)on1 [Example 600, N^4-(3-cyclopropyl-1H-pyrazol-5-yl)-6-methyl-N^2-[(3-methylisoxazol-5-yl)methyl]pyrimidine-2,4-diamine] | – | – | 50 to 500 nM | 50 to 500 nM
23 | Cc1cc(Nc2cc(N3CCN(C)CC3)nc(NCc3cc(C)no3)n2)[nH]n1 [Example 626, N^2-[(3-methylisoxazol-5-yl)methyl]-6-(4-methylpiperazin-1-yl)-N^4-(3-methyl-1H-pyrazol-5-yl)pyrimidine-2,4-diamine] | – | – | 50 to 500 nM | 500 to 5000 nM
24 | COc1ccc(C)cc1Nc1ncc(Br)c(Nc2cc(C3CC3)[nH]n2)n1 [Example 147] | 50 to 500 nM | 500 to 5000 nM | – | –
25 | Nc1ncc(Br)c(Nc2cc(C3CC3)[nH]n2)n1 [Example 314] | > 5000 nM | > 5000 nM | – | –
26 | c1cc(Nc2cc(C3CCCC3)n[nH]2)nc(Nc2ccc(N3CCOCC3)cc2)n1 [Example 151] | 50 to 500 nM | 500 to 5000 nM | – | –
27 | c1cc(Nc2ccon2)nc(Nc2ccc(N3CCOCC3)cc2)n1 [Example 311] | > 5000 nM | > 5000 nM | – | –
